From PubChem BioAssay (NCI)
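The compound was tested at five concentrations on cells cultured in 96-well plates, with a 48-hour exposure period. At the GI50, growth is halved. The concentration for full growth arrest is given as TGI.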

Columns and labels:
Assay in all cases: NCI tumour cell line growth inhibition, 48 h
[1] = tested on: HCC-2998 colon
[2] = tested on: SK-MEL-5 melanoma
[3] = tested on: SK-OV-3 ovarian
[4] = tested on: COLO 205 colon
[5] = tested on: SK-MEL-28 melanoma
[6] = tested on: HCT-116 colon
[7] = tested on: SK-MEL-2 melanoma
[8] = tested on: A549 NSCLC
[9] = tested on: 786-0 renal
[10] = tested on: RPMI-8226 leukemia

SMILES	GI50 [1] [µM]	TGI [1] [µM]	GI50 [2] [µM]	TGI [2] [µM]	GI50 [3] [µM]	TGI [3] [µM]	GI50 [4] [µM]	TGI [4] [µM]	GI50 [5] [µM]	TGI [5] [µM]	GI50 [6] [µM]	TGI [6] [µM]	GI50 [7] [µM]	TGI [7] [µM]	GI50 [8] [µM]	TGI [8] [µM]	GI50 [9] [µM]	TGI [9] [µM]	GI50 [10] [µM]	TGI [10] [µM]
CSc1ccc(C2=NN(C(C)=O)C(c3cc(C)cs3)C2)cc1 (stereo not given)	20	> 100	15.1	29.5	38.2	> 100	17.3	35.8	37	> 100	20.4	66.1	39	> 100	27.2	> 100	40	> 100	15.3	> 100
Cc1cc2c(cc1C)[n+](=O)c(C(=O)CC(=O)C(=O)Nc1c(C(C)C)cccc1C(C)C)c(C)n2[O-]		> 100		> 100		> 100		> 100		> 100		> 100		> 100		> 100		> 100		> 100
O=C(Nc1ccc(N2CCNCC2)cc1)c1[nH]ncc1Nc1cc(Oc2ccccc2)ncn1	1.95	4.2	1.43	3	1.99	4.84	1.19	2.78	2.26	5.75	1.42	2.99	3.82	15.3	1.07	2.95	1.84	3.33	1.5	3.88
O=C1/C(=C/c2ccc(Br)cc2)C=C(c2ccccc2)N1CCc1ccccc1	7.52	> 100	3.89	20.8	1.55	5	3.26	27.5	2.75	17	0.394	11.7	4.47	27.2	1.37	11.9	0.647	2.8	9.44	86.4
COC(=O)c1cc2c3ccccc3[nH]c2c2ncccc12	73.8	> 100	58	> 100	43.3	> 100	> 100	> 100	85.8	> 100	54.9	> 100	> 100	> 100	75.1	> 100	61.2	> 100	56.3	> 100
CNC(=O)OCc1c(COC(=O)NC)c(-c2ccc(Cl)c(Cl)c2)n2c1SCC2		30		25.1		28.1		26.7		37.3		26		26.7		> 88		> 46.8		39.7
CC1=C(CCCNS(C)(=O)=O)C2=C(C)C3(CC3)[C@@](C)(O)C(=O)C2=C1	1.52	4.51	0.492	1.98	0.304	1.11	0.853	2.69	1.94	4.75	0.863	> 100	1.67	4.13	1.64	24.8	0.816	6.32	> 64.5	> 100
O=C(CN1CCOCC1)Nc1ccc(Cn2nnc3c2C(=O)c2nnn(Cc4ccc(NC(=O)CN5CCOCC5)cc4)c2C3=O)cc1	0.348	1.34	0.249	0.877	2.68	8.28	0.199	0.463	0.696	2.62	0.316	1.16	0.438	1.72	1.99	4.97	1.94	5.27	0.365	2.24
O=C(O)CCCCC(CCSCc1ccccc1)SCc1ccccc1 (stereo not given)	34.8	> 100	53.5	> 100	> 88.7	> 100	> 92.3	> 100	45.1	> 100	37.7	> 100	27.5	67.6	43.5	> 100	64.2	> 100	30.6	96.7
O=C1CNCCCN2CCN(CCCNCC(=O)Nc3ccc(cc3)S(=O)(=O)c3ccc(cc3)NC(=O)CNCCCN3CCN(CCCNCC(=O)Nc4ccc(cc4)S(=O)(=O)c4ccc(cc4)N1)CC3)CC2		42.7		> 73		> 100		96.9		> 56.8		> 80.4		90.1		> 100		38.9		64
CC1CCC2(C(=O)O)CCC3(C)C(=CCC4C5(C)CC(O)C(O)C(C)(CO)C5C(O)CC43C)C2C1C (stereo not given)		> 100		87.2		> 100		> 100		69		> 24.3		36.6		> 100		20		80.4
CC(=O)Nc1ccccc1Sc1ccccc1		> 100		> 100		> 100		> 100		> 100		> 100		> 100		> 100		> 100		> 100
NCC(=O)NS(=O)(=O)OC[C@H]1O[C@@H](n2cnc3c(N)ncnc32)[C@H](O)[C@@H]1O	2.04	4.34	1.85	3.34	2.87	7.94	2.27	6.14	1.93	4.14	3.14	9.19	2.22	4.69	2.32	5.27	1.77	3.47	3.29	10.1
N#Cc1ccc(C#Cc2ccccc2C#CCCCCO)cc1	18.5	33.1	17.5	31.9	18.2	33.5	18.1	34.3	25.6	53.7	12.7	25.3	17.1	36.4	14.4	27.9	4.39	18.1	20.6	44.1
N#CC1(Cc2ccc(N)cc2)c2ccccc2C=CN1C(=O)c1ccccc1 (stereo not given)		> 100		47.2		> 100		85.7		> 100		> 100		> 100		> 100		> 100		> 100
CC(C)CC(=O)[O-].CC(C)CC(=O)[O-].N.N.N.N.[Co+3].[O-][Cl+3]([O-])([O-])[O-]	> 100	> 100	> 100	> 100	> 100	> 100	> 100	> 100	> 100	> 100	> 100	> 100	> 100	> 100	> 100	> 100	> 100	> 100	> 100	> 100
Cc1ccc(S(=O)(=O)N(CCOc2ccc(/C(N)=N/Cl)cc2)CCOc2ccc(/C(N)=N\Cl)cc2)cc1	18.2	46.3	10.3	26.8	83.3	> 100	11	28.8	25.7	> 100	12.7	> 100	> 100	> 100	4.88	> 100	34.6	> 100	8.99	> 100
N#C/C(=C/c1ccsc1)C(=O)c1ccccc1		> 100		> 100		> 100		> 100		> 100		> 100		> 100		> 100		> 100		> 100
N#C/C(=C1C=C/C(=N/O)C(Br)=C/1)c1ccccc1	5.02	20.7	2.75	10.4	4.43	71.6	6.89	54.7	10.3	31.1	0.362	2.13	3.64	13.9	3.48	> 100	3.19	14.7	0.36	11.5
O=C1c2c(c3c4ccccc4n(CCCCCCBr)c3c3[nH]c4ccccc4c23)C(=O)N1O	2.87	12.5	1.48	2.8	2.87	10.4	1.97	4.7	2.95	15.7	2.15	10.8	2.09	5.27	3.31	12.1	2.09	5.81	1.92	5.57
CN(C)CCC(=O)N1C/C(=C/c2ccccc2)C(=O)/C(=C\c2ccccc2)C1		2.45		3.9		15.2		5.77		5.18		1.15		8.74		13.5		3.62		0.717
